From PMC5908784, “Extracellular loops 2 and 3 of the calcitonin receptor selectively modify agonist binding and efficacy” (Biochemical Pharmacology, 2018)
Numbering of substitutions follows the chain as printed. Where a SMILES comes first, the peptide text is derived from it. Bridges are numbered along the chain shown (N, C = ends).

Key:
Assay in all cases: ERK1/2 phosphorylation
Type in all cases: cell-based
hCTR D287A = target: T1, hCTR D287A (Homo sapiens, UniProt P30988, D287A); conditions: CV1-FlpIn cells, mean ± S.E.M.; for Emax: pERK maximal response
T1 construct: c-Myc (N); expressed in transfected cells
T1 sequence (P30988 25-474 D287A): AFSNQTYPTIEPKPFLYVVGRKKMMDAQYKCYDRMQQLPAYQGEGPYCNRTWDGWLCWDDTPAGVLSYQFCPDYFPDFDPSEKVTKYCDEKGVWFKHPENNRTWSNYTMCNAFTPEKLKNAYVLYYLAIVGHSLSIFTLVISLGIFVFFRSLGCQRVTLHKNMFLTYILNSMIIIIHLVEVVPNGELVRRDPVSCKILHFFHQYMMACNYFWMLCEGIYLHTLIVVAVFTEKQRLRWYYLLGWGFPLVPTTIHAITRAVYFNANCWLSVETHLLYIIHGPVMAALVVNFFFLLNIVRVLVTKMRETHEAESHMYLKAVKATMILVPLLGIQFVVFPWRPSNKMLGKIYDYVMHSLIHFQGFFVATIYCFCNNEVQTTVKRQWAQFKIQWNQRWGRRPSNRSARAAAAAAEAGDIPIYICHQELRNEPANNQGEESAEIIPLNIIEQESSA
Protocol: (§1) Cells (2.5 × 10^4 cells/well) were seeded into 96-well culture plates and incubated overnight. […] Data were normalized to the maximal response elicited by 10% FBS determined at 6 min.
(§2) Data were corrected for radioligand occupancy using the Cheng-Prusoff equation in Prism; as such data are reported as pKi. Emax and EC50 were estimated from concentration-response curves using with a 3-parameter logistic equation in Prism (v7). These values are a composite of functional affinity, efficacy and stimulus response coupling. […] Significance was accepted at P < 0.05.

hCTR M376A = target: T2, hCTR M376A (Homo sapiens, UniProt P30988, M376A); conditions: CV1-FlpIn cells, mean ± S.E.M.; for Emax: pERK maximal response; for EC50: pERK, three-parameter logistic fit
T2 construct: c-Myc (N); expressed in transfected cells
T2 sequence (P30988 25-474 M376A): T1 sequence (P30988 25-474 D287A) with A263D, M352A
Protocol: as §1, §2

hCTR P360A = target: T3, hCTR P360A (Homo sapiens, UniProt P30988, P360A); conditions: CV1-FlpIn cells, mean ± S.E.M.; for Emax: pERK maximal response
T3 construct: expressed in transfected cells
T3 sequence (P30988 25-474 P360A): T1 sequence (P30988 25-474 D287A) with A263D, P336A
Protocol: as §1, §2

hCTR R362A = target: T4, hCTR R362A (Homo sapiens, UniProt P30988, R362A); conditions: CV1-FlpIn cells, mean ± S.E.M.; for Emax: pERK maximal response; for EC50: pERK, three-parameter logistic fit
T4 construct: expressed in transfected cells
T4 sequence (P30988 25-474 R362A): T1 sequence (P30988 25-474 D287A) with A263D, R338A
Protocol: as §1, §2

hCTR S364A = target: T5, hCTR S364A (Homo sapiens, UniProt P30988, S364A); conditions: CV1-FlpIn cells, mean ± S.E.M.; for Emax: pERK maximal response; for EC50: pERK, three-parameter logistic fit
T5 construct: c-Myc (N); expressed in transfected cells
T5 sequence (P30988 25-474 S364A): T1 sequence (P30988 25-474 D287A) with A263D, S340A
Protocol: as §1, §2

[1] = pERK, three-parameter logistic fit

EC50 (hCTR M376A) [nM] | EC50 (hCTR R362A) [nM] | EC50 (hCTR S364A) [nM] | EC50 (hCTR D287A; [1]) [nM] | EC50 (hCTR P360A; [1]) [nM] | Compound | Emax (hCTR D287A) [%] | Emax (hCTR M376A) [%] | Emax (hCTR P360A) [%] | Emax (hCTR R362A) [%] | Emax (hCTR S364A) [%]
 |  |  |  |  | CC[C@H](C)[C@H](NC(=O)[C@H](C)NC(=O)[C@@H](NC(=O)[C@H](CCC(N)=O)NC(=O)[C@@H]1CCCN1C(=O)[C@H](Cc1ccccc1)NC(=O)[C@@H](NC(=O)[C@H](Cc1c[nH]cn1)NC(=O)[C@H](Cc1ccccc1)NC(=O)[C@H](CCCCN)NC(=O)[C@H](CC(N)=O)NC(=O)[C@H](Cc1ccccc1)NC(=O)[C@H](CC(=O)O)NC(=O)[C@H](CCC(N)=O)NC(=O)[C@@H](NC(=O)[C@H](Cc1ccc(O)cc1)NC(=O)[C@@H](NC(=O)CNC(=O)[C@H](CC(C)C)NC(=O)[C@H](CCSC)NC(=O)[C@@H]1CSSC[C@H](N)C(=O)NCC(=O)N[C@@H](CC(N)=O)C(=O)N[C@@H](CC(C)C)C(=O)N[C@@H](CO)C(=O)N[C@@H]([C@@H](C)O)C(=O)N1)[C@@H](C)O)[C@@H](C)O)[C@@H](C)O)[C@@H](C)O)C(=O)NCC(=O)N[C@H](C(=O)NCC(=O)N[C@@H](C)C(=O)N1CCC[C@H]1C(N)=O)C(C)C [hCT] | 35 ± 5 | 52 ± 4 | 51 ± 6 | 64 ± 7 | 135 ± 10
18.2 | 112 | 10.7 |  |  | CC(C)C[C@H](NC(=O)CNC(=O)[C@H](C)NC(=O)[C@H](CC(C)C)NC(=O)[C@H](CCCNC(=N)N)NC(=O)[C@H](Cc1cnc[nH]1)NC(=O)[C@@H](NC(=O)[C@@H](NC(=O)[C@@H]1CSSC[C@H](NC(=O)[C@H](C)N)C(=O)N[C@@H](CC(=O)O)C(=O)N[C@@H]([C@@H](C)O)C(=O)N[C@@H](C)C(=O)N[C@@H]([C@@H](C)O)C(=O)N1)C(C)C)[C@@H](C)O)C(=O)N[C@@H](CC(C)C)C(=O)N[C@@H](CO)C(=O)N[C@@H](CCCNC(=N)N)C(=O)N[C@@H](CO)C(=O)NCC(=O)NCC(=O)N[C@H](C(=O)N[C@H](C(=O)N[C@@H](CCCCN)C(=O)N[C@@H](CC(N)=O)C(=O)N[C@@H](CC(N)=O)C(=O)N[C@@H](Cc1ccccc1)C(=O)N[C@H](C(=O)N1CCC[C@H]1C(=O)N[C@H](C(=O)N[C@@H](CC(N)=O)C(=O)N[C@H](C(=O)NCC(=O)N[C@@H](CO)C(=O)N[C@@H](CCCCN)C(=O)N[C@@H](C)C(=O)N[C@@H](Cc1ccccc1)C(N)=O)C(C)C)[C@@H](C)O)C(C)C)C(C)C)C(C)C [hαCGRP] |  | 36 ± 8 |  | 31 ± 8 | 54 ± 6
1.95 | 7.59 | 3.63 | 12.6 | 39.8 | CSCC[C@H](NC(=O)CNC(=O)[C@H](CO)NC(=O)[C@H](Cc1ccccc1)NC(=O)[C@H](CCCNC(=N)N)NC(=O)[C@H](Cc1c[nH]cn1)NC(=O)[C@H](Cc1ccccc1)NC(=O)[C@H](CC(N)=O)NC(=O)[C@H](CC(N)=O)NC(=O)[C@H](CC(C)C)NC(=O)[C@H](CC(N)=O)NC(=O)[C@H](CCCNC(=N)N)NC(=O)[C@H](Cc1c[nH]c2ccccc12)NC(=O)[C@H](Cc1ccc(O)cc1)NC(=O)[C@H](C)NC(=O)[C@H](CO)NC(=O)[C@H](CC(C)C)NC(=O)[C@@H](NC(=O)[C@@H]1CSSC[C@H](N)C(=O)N[C@@H](CO)C(=O)N[C@@H](CC(N)=O)C(=O)N[C@@H](CC(C)C)C(=O)N[C@@H](CO)C(=O)N[C@@H]([C@@H](C)O)C(=O)N1)C(C)C)C(=O)NCC(=O)N[C@@H](Cc1ccccc1)C(=O)NCC(=O)N1CCC[C@H]1C(=O)N[C@@H](CCC(=O)O)C(=O)N[C@H](C(=O)N1CCC[C@H]1C(N)=O)[C@@H](C)O [pCT] (H-CSNLSTCVLSAYWRNLNNFHRFSGMGFGPETP-NH2; disulfide 1-7) | 27 ± 3 | 47 ± 4 | 59 ± 7 | 45 ± 4 | 127 ± 12
 |  |  |  |  | CC(C)C[C@H](NC(=O)[C@H](CC(N)=O)NC(=O)[C@H](CC(N)=O)NC(=O)[C@H](CO)NC(=O)[C@H](CO)NC(=O)[C@H](CCCNC(=N)N)NC(=O)[C@@H](NC(=O)[C@H](CC(C)C)NC(=O)[C@H](Cc1ccccc1)NC(=O)[C@H](CC(N)=O)NC(=O)[C@H](C)NC(=O)[C@H](CC(C)C)NC(=O)[C@H](CCCNC(=N)N)NC(=O)[C@H](CCC(N)=O)NC(=O)[C@@H](NC(=O)[C@H](C)NC(=O)[C@@H]1CSSC[C@H](NC(=O)[C@@H](N)CCCCN)C(=O)N[C@@H](CC(N)=O)C(=O)N[C@@H]([C@@H](C)O)C(=O)N[C@@H](C)C(=O)N[C@@H]([C@@H](C)O)C(=O)N1)[C@@H](C)O)C(C)C)C(=O)NCC(=O)N1CCC[C@H]1C(=O)N[C@H](C(=O)N[C@@H](CC(C)C)C(=O)N1CCC[C@H]1C(=O)N1CCC[C@H]1C(=O)N[C@H](C(=O)N[C@@H](CC(N)=O)C(=O)N[C@H](C(=O)NCC(=O)N[C@@H](CO)C(=O)N[C@@H](CC(N)=O)C(=O)N[C@H](C(=O)N[C@@H](Cc1ccc(O)cc1)C(N)=O)[C@@H](C)O)C(C)C)[C@@H](C)O)C(C)C [rAmy] |  | 43 ± 7 |  | 36 ± 7 | 66 ± 9
 |  |  |  |  | CC(C)C[C@H](NC(=O)[C@H](CCCCN)NC(=O)CNC(=O)[C@H](CC(C)C)NC(=O)[C@@H](NC(=O)[C@@H]1CSSC[C@H](N)C(=O)N[C@@H](CO)C(=O)N[C@@H](CC(N)=O)C(=O)N[C@@H](CC(C)C)C(=O)N[C@@H](CO)C(=O)N[C@@H]([C@@H](C)O)C(=O)N1)C(C)C)C(=O)N[C@@H](CO)C(=O)N[C@@H](CCC(N)=O)C(=O)N[C@@H](CCC(=O)O)C(=O)N[C@@H](CC(C)C)C(=O)N[C@@H](Cc1c[nH]cn1)C(=O)N[C@@H](CCCCN)C(=O)N[C@@H](CC(C)C)C(=O)N[C@@H](CCC(N)=O)C(=O)N[C@H](C(=O)N[C@@H](Cc1ccc(O)cc1)C(=O)N1CCC[C@H]1C(=O)N[C@@H](CCCNC(=N)N)C(=O)N[C@H](C(=O)N[C@@H](CC(N)=O)C(=O)N[C@H](C(=O)NCC(=O)N[C@@H](CO)C(=O)NCC(=O)N[C@H](C(=O)N1CCC[C@H]1C(N)=O)[C@@H](C)O)[C@@H](C)O)[C@@H](C)O)[C@@H](C)O [sCT] | 39 ± 2 | 72 ± 5 | 115 ± 9 | 107 ± 10 | 106 ± 4
